pIC50: −log10 of the molar value. Read-outs that look alike come from different tables or passages of the source.
Legend:
mTOR = target: T1, mTOR (Homo sapiens, UniProt P42345); assay: mTOR kinobeads assay (competitive binding in Jurkat cell lysate, immunodetection)
T1 construct: endogenous in cells; host or cells: Jurkat, clone E6-1 (ATCC TIB-152) cell lysate
How it was run: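 IC50 derived from dose-response curves of mTOR captured on immobilized phenylmorpholin-chromen beads, detected by antibody dot blot with infrared fluorescence.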

PI3K delta (PI3 Kd) = target: T2, PI3K delta (PI3 Kd) (Homo sapiens, UniProt O00329); assay: kinobeads assay, PI3K delta; type: binding
T2 construct: endogenous in cells; host or cells: Jurkat, clone E6-1 (ATCC TIB-152) cell lysate
How it was run: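 Competitive binding in Jurkat cell lysate (5 mg/mL protein) against beads carrying an immobilized phenylmorpholin-chromen ligand, in DP buffer pH 7.4 with NP40, DTT and NaF. Bead-bound kinases were eluted and quantified by antibody dot blot with infrared detection, and IC50 was taken from dose-response curves of a 1:3 dilution series.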

[1] = kinobeads assay, Table 4, read-out: Inhibition values (IC50) mTor
[2] = kinobeads assay, Table 6, read-out: Inhibition values (IC50) mTOR
[3] = kinobeads assay, Table 4, read-out: Inhibition values (IC50) PI3Kd
[4] = kinobeads assay, Table 6, read-out: Inhibition values (IC50) PI3Kd
[5] = Further Kinobeads Data, read-out: mTor
[6] = Further Kinobeads Data, read-out: PI3Kd

T2 sequence (O00329 whole entry): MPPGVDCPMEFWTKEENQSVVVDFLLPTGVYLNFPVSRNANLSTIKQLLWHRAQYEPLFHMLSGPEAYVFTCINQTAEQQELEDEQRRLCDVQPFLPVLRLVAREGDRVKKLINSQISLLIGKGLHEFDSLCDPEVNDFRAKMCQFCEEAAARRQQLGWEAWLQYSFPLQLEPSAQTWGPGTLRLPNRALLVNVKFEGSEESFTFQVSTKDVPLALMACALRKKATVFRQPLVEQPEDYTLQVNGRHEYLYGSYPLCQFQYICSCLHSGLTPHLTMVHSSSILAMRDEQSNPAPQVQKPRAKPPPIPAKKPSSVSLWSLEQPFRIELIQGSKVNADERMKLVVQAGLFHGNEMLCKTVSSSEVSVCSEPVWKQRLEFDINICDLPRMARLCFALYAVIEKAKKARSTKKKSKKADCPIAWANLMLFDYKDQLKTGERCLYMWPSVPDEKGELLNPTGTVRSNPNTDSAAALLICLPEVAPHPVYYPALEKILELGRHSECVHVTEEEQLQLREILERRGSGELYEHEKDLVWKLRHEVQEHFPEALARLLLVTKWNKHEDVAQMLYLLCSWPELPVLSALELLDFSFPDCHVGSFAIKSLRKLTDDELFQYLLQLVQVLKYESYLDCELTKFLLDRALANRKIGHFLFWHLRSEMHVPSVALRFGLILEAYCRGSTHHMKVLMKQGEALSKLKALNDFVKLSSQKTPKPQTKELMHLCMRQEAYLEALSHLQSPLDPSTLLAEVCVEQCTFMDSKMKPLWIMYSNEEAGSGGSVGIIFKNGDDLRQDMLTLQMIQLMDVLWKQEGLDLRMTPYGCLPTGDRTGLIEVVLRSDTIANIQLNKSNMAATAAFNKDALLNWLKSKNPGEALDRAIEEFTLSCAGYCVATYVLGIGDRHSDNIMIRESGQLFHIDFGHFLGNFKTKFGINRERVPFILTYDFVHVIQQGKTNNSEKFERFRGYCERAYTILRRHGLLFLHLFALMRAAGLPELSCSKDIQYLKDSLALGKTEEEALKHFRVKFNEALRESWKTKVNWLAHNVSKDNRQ
T2 sequence (P27986 whole entry partner): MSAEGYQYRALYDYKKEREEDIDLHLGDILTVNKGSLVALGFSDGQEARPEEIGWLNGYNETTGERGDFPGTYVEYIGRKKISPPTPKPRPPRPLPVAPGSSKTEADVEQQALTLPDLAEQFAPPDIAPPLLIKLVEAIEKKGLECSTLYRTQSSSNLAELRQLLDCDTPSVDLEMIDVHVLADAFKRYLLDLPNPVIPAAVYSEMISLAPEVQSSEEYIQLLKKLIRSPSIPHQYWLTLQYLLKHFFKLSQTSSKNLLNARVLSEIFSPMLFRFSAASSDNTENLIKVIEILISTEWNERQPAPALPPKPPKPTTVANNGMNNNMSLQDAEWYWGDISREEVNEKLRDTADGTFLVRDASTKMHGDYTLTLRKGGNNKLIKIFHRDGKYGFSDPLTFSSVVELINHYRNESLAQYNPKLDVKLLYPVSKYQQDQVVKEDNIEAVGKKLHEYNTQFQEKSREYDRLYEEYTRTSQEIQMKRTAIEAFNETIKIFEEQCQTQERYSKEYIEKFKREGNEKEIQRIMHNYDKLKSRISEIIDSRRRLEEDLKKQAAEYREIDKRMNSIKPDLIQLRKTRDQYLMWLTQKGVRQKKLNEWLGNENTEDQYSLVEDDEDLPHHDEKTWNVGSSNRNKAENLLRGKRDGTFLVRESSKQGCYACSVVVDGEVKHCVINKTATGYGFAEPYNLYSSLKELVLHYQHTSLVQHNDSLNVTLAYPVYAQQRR

| SMILES | pIC50 (mTOR; [1]) | pIC50 (mTOR; [2]) | pIC50 (PI3K delta (PI3 Kd); [3]) | pIC50 (PI3K delta (PI3 Kd); [4]) | pIC50 (mTOR; [5]) | pIC50 (PI3K delta (PI3 Kd); [6]) |
| --- | --- | --- | --- | --- | --- | --- |
| CNC(=O)Nc1ccc(-c2nc3c(c(N4CCOC[C@@H]4C)n2)CN(CC2CC2)C3)cc1 [Example 47, (S)-1-(4-(6-(cyclopropylmethyl)-4-(3-methylmorpholino)-6,7-dihydro-5H-pyrrolo[3,4-d]pyrimidin-2-yl)phenyl)-3-methylurea] | > 7.00 | > 7.00 | 5.00 to 6.00 | 5.00 to 6.00 | – | – |
| C[C@H]1COCCN1c1nc(-c2ccc(NC(=O)NC3CC3)cc2)nc2c1CCNC2 [Example 15, (S)-1-cyclopropyl-3-(4-(4-(3-methylmorpholino)-5,6,7,8-tetrahydropyrido[3,4-d]pyrimidin-2-yl)phenyl)urea] | > 7.00 | > 7.00 | < 5.00 | < 5.00 | – | – |
| CCNC(=O)Nc1ccc(-c2nc3c(c(N4CCOCC4)n2)CN(C(=O)OC)C3)c(F)c1 [Example 162, methyl 2-(4-(3-ethylureido)-2-fluorophenyl)-4-morpholino-5H-pyrrolo[3,4-d]pyrimidine-6(7H)-carboxylate] | – | – | – | – | > 7.00 | 5.00 to 6.00 |
| CCOC(=O)N1Cc2nc(-c3ccc(NC(=O)NC4CC4)cc3F)nc(N3CCOCC3)c2C1 [Example 156, Ethyl 2-(4-(3-cyclopropylureido)-2-fluorophenyl)-4-morpholino-5H-pyrrolo[3,4-d]pyrimidine-6(7H)-carboxylate] | – | – | – | – | > 7.00 | < 5.00 |
| CCOC(=O)N1Cc2nc(-c3ccc(NC(=O)NCCO)cc3F)nc(N3CCOC[C@@H]3C)c2C1 [Example 167, (S)-Ethyl 2-(2-fluoro-4-(3-(2-hydroxyethyl)ureido)phenyl)-4-(3-methylmorpholino)-5H-pyrrolo[3,4-d]pyrimidine-6(7H)-carboxylate] | – | – | – | – | > 7.00 | 5.00 to 6.00 |
| C[C@H]1COCCN1c1nc(-c2ccc(NC(=O)NC3CC3)cc2F)nc2c1CCN(C(=O)N(C)C)C2 [Example 165, (S)-2-(4-(3-cyclopropylureido)-2-fluorophenyl)-N,N-dimethyl-4-(3-methylmorpholino)-5,6-dihydropyrido[3,4-d]pyrimidine-7(8H)-carboxamide] | – | – | – | – | > 7.00 | < 5.00 |
| COC(=O)N1Cc2nc(-c3ccc(NC(=O)NC4CC4)cc3F)nc(N3CCOC[C@H]3C)c2C1 [Example 180, (R)-methyl 2-(4-(3-cyclopropylureido)-2-fluorophenyl)-4-(3-methylmorpholino)-5H-pyrrolo[3,4-d]pyrimidine-6(7H)-carboxylate] | – | – | – | – | > 7.00 | < 5.00 |
| CCNC(=O)Nc1ccc(-c2nc3c(c(N4CCOC[C@@H]4C)n2)CCN(C(=O)c2ccc(F)cc2)C3)cc1 [Example 24, (S)-1-ethyl-3-(4-(7-(4-fluorobenzoyl)-4-(3-methylmorpholino)-5,6,7,8-tetrahydropyrido[3,4-d]pyrimidin-2-yl)phenyl)urea] | 6.00 to 7.00 | 6.00 to 7.00 | < 5.00 | < 5.00 | – | – |
| CCNC(=O)Nc1ccc(-c2nc3c(c(N4CCOCC4)n2)CN(C)C3)c(F)c1 [Example 154, 1-ethyl-3-(3-fluoro-4-(6-methyl-4-morpholino-6,7-dihydro-5H-pyrrolo[3,4-d]pyrimidin-2-yl)phenyl)urea] | – | – | – | – | 6.00 to 7.00 | < 5.00 |
| C[C@@H]1COCCN1c1nc(-c2ccc(NC(=O)NC3CC3)cc2F)nc2c1CN(C(=O)C1CC1)C2 [Example 188, (R)-1-(4-(6-(cyclopropanecarbonyl)-4-(3-methylmorpholino)-6,7-dihydro-5H-pyrrolo[3,4-d]pyrimidin-2-yl)-3-fluorophenyl)-3-cyclopropylurea] | – | – | – | – | > 7.00 | < 5.00 |
| CCNC(=O)Nc1ccc(-c2nc3c(c(N4CCOC[C@@H]4C)n2)CN(C=O)C3)cc1 [Example 8, (S)-1-ethyl-3-(4-(6-formyl-4-(3-methylmorpholino)-6,7-dihydro-5H-pyrrolo[3,4-d]pyrimidin-2-yl)phenyl)urea] | > 7.00 | > 7.00 | < 5.00 | < 5.00 | – | – |
| CC(C)N1Cc2nc(-c3ccc(NC(=O)NCCO)cc3F)nc(N3CCOC[C@@H]3C)c2C1 [Example 187, (S)-1-(3-fluoro-4-(6-isopropyl-4-(3-methylmorpholino)-6,7-dihydro-5H-pyrrolo[3,4-d]pyrimidin-2-yl)phenyl)-3-(2-hydroxyethyl)urea] | – | – | – | – | > 7.00 | < 5.00 |
| CCNC(=O)Nc1ccc(-c2nc3c(c(N4CCOC[C@@H]4C)n2)CN(C)C3)cc1 [Example 26, (S)-1-ethyl-3-(4-(6-methyl-4-(3-methylmorpholino)-6,7-dihydro-5H-pyrrolo[3,4-d]pyrimidin-2-yl)phenyl)urea] | > 7.00 | > 7.00 | < 5.00 | < 5.00 | – | – |
| C[C@H]1COCCN1c1nc(-c2ccc(NC(=O)NC3CC3)cc2)nc2c1CN(C(=O)C1CC1)C2 [Example 17, (S)-1-(4-(6-(cyclopropanecarbonyl)-4-(3-methylmorpholino)-6,7-dihydro-5H-pyrrolo[3,4-d]pyrimidin-2-yl)phenyl)-3-cyclopropylurea] | > 7.00 | > 7.00 | < 5.00 | < 5.00 | – | – |
| CCNC(=O)Nc1ccc(-c2nc3c(c(N4CCOC[C@@H]4C)n2)CCN(C(=O)C2CC2)C3)cc1 [Example 56, (S)-1-(4-(7-(cyclopropanecarbonyl)-4-(3-methylmorpholino)-5,6,7,8-tetrahydropyrido[3,4-d]pyrimidin-2-yl)phenyl)-3-ethylurea] | > 7.00 | > 7.00 | < 5.00 | < 5.00 | – | – |
| C[C@H]1COCCN1c1nc(-c2ccc(NC(=O)NC3CC3)cc2F)nc2c1CN(C)C2 [Example 147, (S)-1-cyclopropyl-3-(3-fluoro-4-(6-methyl-4-(3-methylmorpholino)-6,7-dihydro-5H-pyrrolo[3,4-d]pyrimidin-2-yl)phenyl)urea] | – | – | – | – | > 7.00 | < 5.00 |
| CNC(=O)Nc1ccc(-c2nc3c(c(N4CCOC[C@@H]4C)n2)CCNC3)cc1 [Example 16, (S)-1-methyl-3-(4-(4-(3-methylmorpholino)-5,6,7,8-tetrahydropyrido[3,4-d]pyrimidin-2-yl)phenyl)urea] | > 7.00 | > 7.00 | < 5.00 | < 5.00 | – | – |
| CCNC(=O)Nc1ccc(-c2nc3c(c(N4CCOC[C@@H]4C)n2)CN(CC)C3)cc1 [Example 39, (S)-1-ethyl-3-(4-(6-ethyl-4-(3-methylmorpholino)-6,7-dihydro-5H-pyrrolo[3,4-d]pyrimidin-2-yl)phenyl)urea] | > 7.00 | > 7.00 | < 5.00 | < 5.00 | – | – |
| COC(=O)N1Cc2nc(-c3ccc(NC(=O)NC4CC4)cc3F)nc(N3CCOC[C@@H]3C)c2C1 [Example 146, (S)-methyl 2-(4-(3-cyclopropylureido)-2-fluorophenyl)-4-(3-methylmorpholino)-5H-pyrrolo[3,4-d]pyrimidine-6(7H)-carboxylate] | – | – | – | – | 6.00 to 7.00 | < 5.00 |
| CC(C)N1Cc2nc(-c3ccc(NC(=O)NC4CC4)cc3)nc(N3CCOC[C@@H]3C)c2C1 [Example 46, (S)-1-cyclopropyl-3-(4-(6-isopropyl-4-(3-methylmorpholino)-6,7-dihydro-5H-pyrrolo[3,4-d]pyrimidin-2-yl)phenyl)urea] | > 7.00 | > 7.00 | < 5.00 | < 5.00 | – | – |
| CC(C)CN1CCc2c(nc(-c3ccc(NC(=O)NC4CC4)cc3)nc2N2CCOC[C@@H]2C)C1 [Example 42, (S)-1-cyclopropyl-3-(4-(7-isobutyl-4-(3-methylmorpholino)-5,6,7,8-tetrahydropyrido[3,4-d]pyrimidin-2-yl)phenyl)urea] | > 7.00 | > 7.00 | < 5.00 | < 5.00 | – | – |
| CCNC(=O)Nc1ccc(-c2nc3c(c(N4CCOC[C@@H]4C)n2)CCN(C(=O)N(C)C)C3)c(F)c1 [Example 176, (S)-2-(4-(3-ethylureido)-2-fluorophenyl)-N,N-dimethyl-4-(3-methylmorpholino)-5,6-dihydropyrido[3,4-d]pyrimidine-7(8H)-carboxamide] | – | – | – | – | > 7.00 | 5.00 to 6.00 |
| CCOC(=O)N1Cc2nc(-c3ccc(NC(=O)NCCO)cc3F)nc(N3CCOCC3)c2C1 [Example 171, ethyl 2-(2-fluoro-4-(3-(2-hydroxyethyl)ureido)phenyl)-4-morpholino-5H-pyrrolo[3,4-d]pyrimidine-6(7H)-carboxylate] | – | – | – | – | > 7.00 | < 5.00 |
| CCNC(=O)Nc1ccc(-c2nc3c(c(N4CCOC[C@@H]4C)n2)CCNC3)cc1 [Example 13, (S)-1-ethyl-3-(4-(4-(3-methylmorpholino)-5,6,7,8-tetrahydropyrido[3,4-d]pyrimidin-2yl)phenyl)urea] | > 7.00 | > 7.00 | < 5.00 | < 5.00 | – | – |
| CC(C)N1CCc2c(nc(-c3ccc(NC(=O)NC4CC4)cc3)nc2N2CCOC[C@@H]2C)C1 [Example 43, (S)-1-cyclopropyl-3-(4-(7-isopropyl-4-(3-methylmorpholino)-5,6,7,8-tetrahydropyrido[3,4-d]pyrimidin-2-yl)phenyl)urea] | > 7.00 | > 7.00 | < 5.00 | < 5.00 | – | – |
| C[C@@H]1COCCN1c1nc(-c2ccc(NC(=O)NC3CC3)cc2F)nc2c1CN(C=O)C2 [Example 190, (R)-1-cyclopropyl-3-(3-fluoro-4-(6-formyl-4-(3-methylmorpholino)-6,7-dihydro-5H-pyrrolo[3,4-d]pyrimidin-2-yl)phenyl)urea] | – | – | – | – | > 7.00 | < 5.00 |
